From PubChem BioAssay AID1259411 (Chemical Carcinogenesis Research Information System (CCRIS), 2018)
Activity calls are given as the source filed them. How the calls were made is not given here.

Test system: rodent carcinogenicity bioassays, tumor incidence
Assay: CCRIS carcinogenicity studies
Outline: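 NCI-built, expert-reviewed records of carcinogenicity and related test outcomes (mutagenicity, tumor promotion/inhibition) compiled from published and report sources, historical span 1985-2011, not updated.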

CCOP(=O)(NC(C)C)Oc1ccc(SC)c(C)c1 (centres undefined)
carcinogen call (Species: Mouse, Strain/Sex: CD-1/Female (50/Group), Route: Oral, Dose: 0, 2, 10, 50 ppm of 89.2-90.5% fenamiphos in diet for 20 mo, study duration 20 mo, Dose: 0, 2, 10, 50 ppm of 89.2-90.5% fenamiphos in diet for 20 mo, study duration 20 mo): inactive; negative
carcinogen call (Species: Mouse, Strain/Sex: CD-1/Male (50/Group), Route: Oral, Dose: 0, 2, 10, 50 ppm of 89.2-90.5% fenamiphos in diet for 20 mo, study duration 20 mo, Dose: 0, 2, 10, 50 ppm of 89.2-90.5% fenamiphos in diet for 20 mo, study duration 20 mo): inactive; negative
carcinogen call (Species: Rat, Strain/Sex: Strain not specified/Female (50/Group), Route: Oral, Dose: 0, 2, 10, 50 ppm Nemacure (89% fenamiphos) in diet for 2 yr, study duration 2 yr, Dose: 0, 2, 10, 50 ppm Nemacure (89% fenamiphos) in diet for 2 yr, study duration 2 yr): inactive; negative
carcinogen call (Species: Rat, Strain/Sex: Strain not specified/Male (50/Group), Route: Oral, Dose: 0, 2, 10, 50 ppm Nemacure (89% fenamiphos) in diet for 2 yr, study duration 2 yr, Dose: 0, 2, 10, 50 ppm Nemacure (89% fenamiphos) in diet for 2 yr, study duration 2 yr): inactive; negative

O=c1[nH]c(=O)n(O)c2nc[nH]c12
carcinogen call (Species: RAT, Strain/Sex: SPRAGUE-DAWLEY/FEMALE, Route: SUBCUTANEOUS, Dose: 3-7 MG/SUSPENDED IN CARBOXYMETHYLCELLULOSE IN SALINE 1/WK FOR 22-26 WK, Tumor Site: Type of Lesion: INJECTION SITE, LIVER: HYPERPLASTIC NODULE OR HEPATOMA): active; positive
carcinogen call (Species: RAT, Strain/Sex: SPRAGUE-DAWLEY/MALE, Route: SUBCUTANEOUS, Dose: 0, 0.1, 1.0 MG IN CARBOXYMETHYLCELLULOSE 3/WK FOR 8 WK, Dose: 0, 0.1, 1.0 MG IN CARBOXYMETHYLCELLULOSE 3/WK FOR 8 WK, Tumor Site: Type of Lesion: INJECTION SITE: SARCOMA, FIBROMA): active; positive
carcinogen call (Species: RAT, Strain/Sex: WISTAR/MALE, FEMALE, Route: SUBCUTANEOUS, Dose: 3-7 MG/SUSPENDED IN CARBOXYMETHYLCELLULOSE IN SALINE 1/WK FOR 22-26 WK, Tumor Site: Type of Lesion: INJECTION SITE, LIVER: HYPERPLASTIC NODULE OR HEPATOMA): active; positive
carcinogen call (Species: RAT, Strain/Sex: WISTAR/MALE, Route: ORAL, Dose: 7 MG IN CARBOXYMETHYLCELLULOSE IN SALINE 1/WK FOR 22 WK, Tumor Site: Type of Lesion: LIVER): active; positive
carcinogen call (Species: RAT, Strain/Sex: WISTAR/MALE, Route: SUBCUTANEOUS, Dose: 0, 0.1, 1.0 MG IN CARBOXYMETHYLCELLULOSE 3/WK FOR 8 WK, Dose: 0, 0.1, 1.0 MG IN CARBOXYMETHYLCELLULOSE 3/WK FOR 8 WK, Tumor Site: Type of Lesion: INJECTION SITE: SARCOMA, FIBROMA): active; positive

CCCCN(N=O)C(=O)CCC(=O)OCC
carcinogen call (Species: RAT, Strain/Sex: F344/MALE,FEMALE, Route: SUBCUTANEOUS, Dose: 38 UMOL/KG IN OLIVE OIL 1/WK FOR 10 WK, Tumor Site: Type of Lesion: INJECTION SITE: MALIGNANT FIBROUS HISTIOCYTOMA): active; positive

CO[Si](CCC1CCC2OC2C1)(OC)OC (centres undefined)
carcinogen call (Species: MOUSE, Strain/Sex: C3H/MALE, Route: DERMAL, Dose: 0, 25 MG IN ACETONE 3/WK FOR DURATION OF STUDY (STUDY DURATION: LIFETIME), Tumor Site: Type of Lesion: SKIN: CARCINOMA): active; positive

CO[C@@]12[C@H](COC(N)=O)C3=C(C(=O)C(C)=C(N)C3=O)N1C[C@@H]1N[C@@H]12
carcinogen call (Species: RAT, Route: INTRAPERITONEAL, Tumor Site: Type of Lesion: PERITONEAL CAVITY): active; positive
carcinogen call (Species: RAT, Route: INTRAVENOUS, Tumor Site: Type of Lesion: PERITONEAL CAVITY, MAMMARY GLAND, INTESTINES, Tumor Site: Type of Lesion: PERITONEAL CAVITY, MAMMARY GLAND, INTESTINES): active; positive

Nc1ccc([N+](=O)[O-])cc1O
carcinogen call (Species: MOUSE, Strain/Sex: B6C3F1/FEMALE, Route: GAVAGE, Dose: 0, 400, 800 MG/KG IN CORN OIL 5D/WK FOR 103 WK (STUDY DURATION: 105 WK), Dose: 0, 400, 800 MG/KG IN CORN OIL 5D/WK FOR 103 WK (STUDY DURATION: 105 WK)): inactive; negative
carcinogen call (Species: MOUSE, Strain/Sex: B6C3F1/MALE, Route: GAVAGE, Dose: 0, 400, 800 MG/KG IN CORN OIL 5D/WK FOR 103 WK (STUDY DURATION: 105 WK), Dose: 0, 400, 800 MG/KG IN CORN OIL 5D/WK FOR 103 WK (STUDY DURATION: 105 WK)): inactive; negative
carcinogen call (Species: RAT, Strain/Sex: F344/FEMALE, Route: GAVAGE, Dose: 0, 100, 200 MG/KG IN CORN OIL 5D/WK FOR 103 WK (STUDY DURATION: 105 WK), Dose: 0, 100, 200 MG/KG IN CORN OIL 5D/WK FOR 103 WK (STUDY DURATION: 105 WK)): inactive; negative
carcinogen call (Species: RAT, Strain/Sex: F344/MALE, Route: GAVAGE, Dose: 0, 100, 200 MG/KG IN CORN OIL 5D/WK FOR 103 WK (STUDY DURATION: 105 WK), Dose: 0, 100, 200 MG/KG IN CORN OIL 5D/WK FOR 103 WK (STUDY DURATION: 105 WK), Tumor Site: Type of Lesion: PANCREAS: ACINAR CELL ADENOMA, PANCREAS: ACINAR CELL ADENOMA OR CARCINOMA): active; positive

CC(=O)N(O)c1ccc(/C=C/c2ccccc2)cc1
carcinogen call (Species: RAT, Strain/Sex: STRAIN-CD/FEMALE, Route: INTRAPERITONEAL, Dose: 0, 10 UMOL/KG BW 2/WK FOR 6 WK (STUDY DURATION: 62 WK), Tumor Site: Type of Lesion: LIVER: NEOPLASTIC NODULE, MAMMARY GLAND: TUMOR, EAR DUCT: TUMOR, PITUITARY GLAND: CARCINOMA, Tumor Site: Type of Lesion: LIVER: NEOPLASTIC NODULE, MAMMARY GLAND: TUMOR, EAR DUCT: TUMOR, PITUITARY GLAND: CARCINOMA): active; positive
carcinogen call (Species: RAT, Strain/Sex: STRAIN-CD/MALE, Route: INTRAPERITONEAL, Dose: 0, 10 UMOL/KG BW 2/WK FOR 6 WK (STUDY DURATION: 62 WK), Tumor Site: Type of Lesion: TESTICLE: MESOTHELIOMA, PANCREAS(ACINUS): ADENOMA, EAR DUCT: CARCINOMA, Tumor Site: Type of Lesion: TESTICLE: MESOTHELIOMA, PANCREAS(ACINUS): ADENOMA, EAR DUCT: CARCINOMA): active; positive

O=C(O)CCC(=O)O
carcinogen call (Species: RAT, Strain/Sex: F344/FEMALE, Route: ORAL, Dose: 0, 1, 2% IN DRINKING WATER FOR 2 YR (STUDY DURATION: 2 YR), Dose: 0, 1, 2% IN DRINKING WATER FOR 2 YR (STUDY DURATION: 2 YR)): inactive; negative
carcinogen call (Species: RAT, Strain/Sex: F344/MALE, Route: ORAL, Dose: 0, 1, 2% IN DRINKING WATER FOR 2 YR (STUDY DURATION: 2 YR), Dose: 0, 1, 2% IN DRINKING WATER FOR 2 YR (STUDY DURATION: 2 YR)): inactive; negative

OC[P+](CO)(CO)CO
carcinogen call (Species: MOUSE, Strain/Sex: B6C3F1/FEMALE, Route: GAVAGE, Dose: 0, 5, 10 MG/KG IN DISTILLED WATER 5 D/WK FOR 103 WK, Dose: 0, 5, 10 MG/KG IN DISTILLED WATER 5 D/WK FOR 103 WK): inactive; negative
carcinogen call (Species: MOUSE, Strain/Sex: B6C3F1/FEMALE, Route: GAVAGE, Dose: 0, 15, 30 MG/KG IN DISTILLED WATER 5 D/WK FOR 103 WK, Dose: 0, 15, 30 MG/KG IN DISTILLED WATER 5 D/WK FOR 103 WK): inactive; negative
carcinogen call (Species: MOUSE, Strain/Sex: B6C3F1/MALE, Route: GAVAGE, Dose: 0, 5, 10 MG/KG IN DISTILLED WATER 5 D/WK FOR 103 WK, Dose: 0, 5, 10 MG/KG IN DISTILLED WATER 5 D/WK FOR 103 WK): inactive; negative
carcinogen call (Species: MOUSE, Strain/Sex: B6C3F1/MALE, Route: GAVAGE, Dose: 0, 7.5, 15 MG/KG IN DISTILLED WATER 5 D/WK FOR 103 WK, Dose: 0, 7.5, 15 MG/KG IN DISTILLED WATER 5 D/WK FOR 103 WK): inactive; negative
carcinogen call (Species: RAT, Strain/Sex: F344/FEMALE, Route: GAVAGE, Dose: 0, 3.75, 7.5 MG/KG IN DISTILLED WATER 5 D/WK FOR 103 WK, Dose: 0, 3.75, 7.5 MG/KG IN DISTILLED WATER 5 D/WK FOR 103 WK): inactive; negative
carcinogen call (Species: RAT, Strain/Sex: F344/FEMALE, Route: GAVAGE, Dose: 0, 5, 10 MG/KG IN DISTILLED WATER 5 D/WK FOR 104 WK, Dose: 0, 5, 10 MG/KG IN DISTILLED WATER 5 D/WK FOR 104 WK): inactive; negative
carcinogen call (Species: RAT, Strain/Sex: F344/MALE, Route: GAVAGE, Dose: 0, 3.75, 7.5 MG/KG IN DISTILLED WATER 5 D/WK FOR 103 WK, Dose: 0, 3.75, 7.5 MG/KG IN DISTILLED WATER 5 D/WK FOR 103 WK): inactive; negative
carcinogen call (Species: RAT, Strain/Sex: F344/MALE, Route: GAVAGE, Dose: 0, 5, 10 MG/KG IN DISTILLED WATER 5 D/WK FOR 104 WK, Dose: 0, 5, 10 MG/KG IN DISTILLED WATER 5 D/WK FOR 104 WK): inactive; negative
